The results in this text go back to ChEMBL document CHEMBL3045450, “Studies on characteristics of ATPase activity of cardiac myosin in the presence of daunorubicin” (Med Chem Res, 2009).

Format in all cases: tissue-based, Heart left ventricle
The nature of series [1]: Inhibition of Sus scrofa (pig) left ventricle Ca2+-ATPase activity of cardiac myosin assessed as inorganic phosphorus released from protein at 0.2 uM after 10 min.
A short description of series [2]: Inhibition of Sus scrofa (pig) left ventricle Ca2+-ATPase activity of cardiac myosin assessed as inorganic phosphorus released from protein at 0.2 to 1 uM. The settings on record: TDE = time-dependent effect.
Series [3] is described as follows: Inhibition of Sus scrofa (pig) left ventricle Ca2+-ATPase activity of cardiac myosin assessed as inorganic phosphorus released from protein at 0.05 uM after 30 min. Conditions: 0.5 h; call rule not given here.
Series [4] can be described thus: Inhibition of Sus scrofa (pig) left ventricle Ca2+-ATPase activity of cardiac myosin assessed as residual activity at 0.8 uM.
The nature of series [5]: Inhibition of Sus scrofa (pig) left ventricle Ca2+-ATPase activity of cardiac myosin assessed as inorganic phosphorus released from protein at 0.2 uM after 1 hr.
The nature of series [6]: Inhibition of Sus scrofa (pig) left ventricle Ca2+-ATPase activity of cardiac myosin assessed as inorganic phosphorus released from protein at 0.4 uM in presence of Mg2+.
Series [7] is described as follows: Inhibition of Sus scrofa (pig) left ventricle Ca2+-ATPase activity of cardiac myosin assessed as inorganic phosphorus released from protein at 0.05 to 0.4 uM.
Series [8] is described as follows: Inhibition of Sus scrofa (pig) left ventricle Ca2+-ATPase activity of cardiac myosin assessed as inorganic phosphorus released from protein at > 0.1 uM after 10 min.

As to `COc1cccc2c1C(=O)c1c(O)c3c(c(O)c1C2=O)C[C@@](O)(C(C)=O)C[C@@H]3O[C@H]1C[C@H](N)[C@H](O)[C@H](C)O1` [DAUNORUBICIN], the “inhibition (INH)” value in series [1] is reported as “Active”; in series [2] it was “tde”; in series [3], “Active”; in series [5], “Active”; in series [6], “Not Active”; in series [7], “Active”. Also, the “inhibition (INH)” value in series [8] was “Active”. Besides, the Activity in series [4] worked out at 0.12 U.
